{
  "source": "the supplement of paper PMC10307832",
  "assay_in_all_cases": "relative viability (nuclei count vs DMSO), 5 days (fraction); higher = more cells survive",
  "key": {"[1]": {"compound": "O[C@H]1CC[C@H](Nc2ncc3nc(Nc4c(F)cc(F)cc4F)n([C@H]4CCOC4)c3n2)CC1 [Tanzisertib] + Nc1nc2[nH]cc(CCc3ccc(C(=O)N[C@@H](CCC(=O)O)C(=O)O)cc3)c2c(=O)[nH]1 [Pemetrexed] (partner 0.2 µM)", "method_in_brief": "(§1)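 Relative viability is defined as nuclei in treated wells over nuclei in vehicle wells. Duplicate plates were run and medians reported. Lung cancer cell lines in 1536-well plates were dosed by pin tool one day after seeding, with one drug or with a fixed anchor-drug dose plus five library-drug doses (not always all listed) in √10 steps, and nuclei were counted after 5 days.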"}, "[2]": {"compound": "O[C@H]1CC[C@H](Nc2ncc3nc(Nc4c(F)cc(F)cc4F)n([C@H]4CCOC4)c3n2)CC1 [Tanzisertib] + CC(C)C[C@H](NC(=O)[C@H](Cc1ccccc1)NC(=O)c1cnccn1)B(O)O [Bortezomib] (partner 0.002 µM)", "method_in_brief": "as §1"}, "[3]": {"compound": "C1CNCCC1C2=CC(=NN2)C3=CC=NC=C3 + O=C(CCCCCCC(=O)Nc1ccccc1)NO [Vorinostat] (partner 1 µM)", "method_in_brief": "as §1"}, "[4]": {"compound": "O[C@H]1CC[C@H](Nc2ncc3nc(Nc4c(F)cc(F)cc4F)n([C@H]4CCOC4)c3n2)CC1 [Tanzisertib] + COc1cc2c(Oc3ccc(NC(=O)C4(C(=O)Nc5ccc(F)cc5)CC4)cc3F)ccnc2cc1OCCCN1CCOCC1 [Foretinib] (partner 0.25 µM)", "method_in_brief": "as §1"}},
  "data": [
    {"cell line": "UMC-11", "values": [
      {"measurement": "relative viability", "setting": "[1]; first compound 0.08 µM", "value": 0.801},
      {"measurement": "relative viability", "setting": "[1]; first compound 0.253 µM", "value": 0.793},
      {"measurement": "relative viability", "setting": "[1]; first compound 0.8 µM", "value": 0.784},
      {"measurement": "relative viability", "setting": "[1]; first compound 2.53 µM", "value": 0.816},
      {"measurement": "relative viability", "setting": "[1]; first compound 8 µM", "value": 0.833},
      {"measurement": "relative viability", "setting": "[2]; first compound 0.08 µM", "value": 0.754},
      {"measurement": "relative viability", "setting": "[2]; first compound 0.253 µM", "value": 0.749},
      {"measurement": "relative viability", "setting": "[2]; first compound 0.8 µM", "value": 0.825},
      {"measurement": "relative viability", "setting": "[2]; first compound 2.53 µM", "value": 0.709},
      {"measurement": "relative viability", "setting": "[2]; first compound 8 µM", "value": 0.946},
      {"measurement": "relative viability", "setting": "[3]; first compound 0.08 µM", "value": 0.394},
      {"measurement": "relative viability", "setting": "[3]; first compound 0.8 µM", "value": 0.419},
      {"measurement": "relative viability", "setting": "[3]; first compound 2.53 µM", "value": 0.392},
      {"measurement": "relative viability", "setting": "[3]; first compound 8 µM", "value": 0.565},
      {"measurement": "relative viability", "setting": "[4]; first compound 0.08 µM", "value": 0.976},
      {"measurement": "relative viability", "setting": "[4]; first compound 0.253 µM", "value": 1.14},
      {"measurement": "relative viability", "setting": "[4]; first compound 0.8 µM", "value": 0.962},
      {"measurement": "relative viability", "setting": "[4]; first compound 2.53 µM", "value": 1.01},
      {"measurement": "relative viability", "setting": "[4]; first compound 8 µM", "value": 1.18}
    ]}
  ]
}
